Results taken from patent US20130345231A1, “ANTICANCER THERAPEUTIC AGENTS” (INDIANA UNIVERSITY RESEARCH AND TECHNOLOGY CORPORATION, priority 2011, published 2013).

Assays:
Type in all cases: cell-based
MCF-7 cells = details: for selectivity of toxicity, breast cancer versus non-malignant breast cells: at concentrations lower than 100 μM (10 μM), MCF7 vs MCF-10A
Protocol: The effect that a set of in silico selected compounds had on the viability of exponentially growing cultured malignant (MCF-7) and non-malignant (MCF-10A) breast cells was determined. Exponentially growing malignant (MCF-7) and non-malignant (MCF-10A) breast cells were incubated for 72 hours with 100 μM of the indicated compounds in growth media, before cell viability was determined colorimetrically using the MTT assay. […] Relative viability was determined by comparison to the viability of the cell cultures incubated in the presence of PBS/DMSO (vehicle) control instead of compound. […] Also were identified compounds that killed: both cell types with nearly equal preference; compounds that had little or no cytotoxic effect on either cell type, and compounds that preferentially killed the non-malignant breast cells.
The short- and long-term cytotoxic effects of each of the AOH compounds was determined essentially as described below for the caPeptide and related peptides, except that the initial cell based screening was determined by incubating cells for 72 hours with 100 μM of each compound. Compounds were classified into specific categories: 1) compounds that preferentially kill breast cancer but not non-malignant breast cells; 2) compounds that appear to kill both malignant and non-malignant breast cells without preference; 3) compounds that appear to have little or no toxicity toward either type of breast cell; and 4) compounds that appear to preferentially kill non-malignant breast cells. For those compounds falling into the first category, the short-term MTT viability assay was repeated using 10 μM of the selected AOH compound.
The MTT ((3-(4,5-Dimethylthiazol-2-yl)-2,5-diphenyltetrazolium bromide) assay was performed to determine the viability of cells exposed for various lengths of time to various peptide constructs containing or related to caPeptide. This assay determines the short-term affect each of the peptides has on cell viability. caPeptide's sequence is LGIPEQEY. The MTT assay was used to monitor the cytotoxic effect various caPeptides had on the viability of human MCF-7, MDA-MB436, HCC1937^(BRCA−) and HCC1937^(BRCA+) breast cancer cells. HCC1937^(BRCA−) cells harbor a hereditary mutation in the BRCA1 gene, that results in a non-functional gene product. These cells, are the parental wild-type to the HCC1937^+ cells, which express a fully functional BRCA1 human transgene. The assay was performed by seeding equal numbers of cells (5×10^3) into each of the wells of 96-well tissue culture plates for an overnight incubation to allow the cells to attach to the plates. In the morning, the cells in each of 3 individual wells were exposed to each of the various peptide constructs at the various concentrations indicated in the figures, for periods of 24, 48 and 72 hours. The MTT assay was then performed on the cells in each of the wells to determine the relative degree to which specific peptides were cytotoxic to each of these breast cancer cell lines. Percent viability at the end of the assay we determined colorimetrically by measuring the absorbance at 405 nm of the assay products formed in each well, averaging them, and then comparing the average absorbance of these assay products formed at each individual time period for each specific concentration of a specific peptide examined to the average absorbance of the 3 wells used to determine the viability of untreated cells exposed to PBS in place of peptide. These wells containing the PBS treated cells were assigned a relative viability of 100%, based upon the average absorbance of the reaction product formed in these wells, and the viability of the cells exposed to the various peptides under specific assay conditions was determined as a percentage of the absorbance produced by these PBS treated cells.

Panc-1 cells = system: Panc-1 cells
Protocol: (§1) FIG. 7: Relative cytotoxicity of the AOH compounds docking with caPCNA toward cultured Panc-1 (A) and Paca2 (B) cells. Relative cytotoxicity was determined by a colorimetric assay (MTT) measuring cell viability following a 72 hour incubation with the compounds indicated. Cells were exposed to DMSO/saline (series 1) and 12.5 (series 2) 25 (series 3) and 50 (series 4) μM of the indicated drug dissolved in DMSO for 72 hours prior to performing the MTT assay.
(§2) FIG. 8: 50 μM AOH-18, AOH-20, and AOH-39 were individually incubated with exponentially growing Panc-1 or Paca-2 cells for 72 hours, after which cell viability was determined colorimetrically using MTT.

Paca-2 cells = test: MTT cell viability assay, Paca-2 cells, 72 hours
Protocol: as §1, §2

Panc-1 and Paca2 cells = test: MTT relative cytotoxicity toward pancreatic cancer lines (statements on both lines together); details: 72 hours; for cytotoxicity toward pancreatic cancer lines: 12.5, 25 and 50 μM
Protocol: as §1

CC(C)(C)c1ccc(CNC2CCN(Cc3ccccc3)CC2)cc1 [AOH-20]
CC50 (MCF-7 cells): 3 to 40 µM | selectivity of toxicity, breast cancer versus non-malignant breast cells (MCF-7 cells): selectively toxic | LC50 (Panc-1 cells): not achieved over the concentration range tested | LC50 (Paca-2 cells): not achieved over the concentration range tested

CCCCNC(=O)c1cc2oc(C)cc2n1Cc1cc(C)ccc1C [AOH-36]
CC50 (MCF-7 cells): 3 to 40 µM

CCNC(C)c1nc2ccccc2c(=O)n1Cc1ccccc1 (stereo not shown) [AOH-1]
cytotoxicity toward pancreatic cancer lines (Panc-1 and Paca2 cells): concentration dependent cytotoxicity

CCn1c2ccccc2c2cc(CNCc3ccccc3)ccc21 [AOH-18]
relative sensitivity of MCF-7 cells among compounds (MCF-7 cells; 72 hours, MTT, rank by LC50): most sensitive | selectivity of toxicity, breast cancer versus non-malignant breast cells (MCF-7 cells): selectively toxic | LC50 (Panc-1 cells): not achieved over the concentration range tested | LC50 (Paca-2 cells): not achieved over the concentration range tested | loss in viability of both pancreatic cell lines (Panc-1 and Paca2 cells; at the MCF-7 LC50 concentration (~3 μM)): little or no loss in viability

CCN(C(=O)Nc1cccc(C(F)(F)F)c1)C(C)c1nc2ccccc2c(=O)n1-c1ccc(F)cc1 (stereo not shown) [AOH-59]
CC50 (MCF-7 cells): 3 to 40 µM | cytotoxicity toward pancreatic cancer lines (Panc-1 and Paca2 cells): concentration dependent cytotoxicity

Cc1nc(C)c(Cc2ccccc2F)c(N2CCN(CC(O)C(C)C)CC2)n1 (stereo not shown) [AOH-52]
cytotoxicity toward pancreatic cancer lines (Panc-1 and Paca2 cells): concentration dependent cytotoxicity

CCCCNC(=O)c1cc2occc2n1Cc1cc(C)ccc1C [AOH-34]
cytotoxicity toward pancreatic cancer lines (Panc-1 and Paca2 cells): concentration dependent cytotoxicity

Cc1ccc(-n2c(C(C)N3CCNC(C)C3)nc3ccccc3c2=O)cc1 (stereo not shown) [AOH-16]
cytotoxicity toward pancreatic cancer lines (Panc-1 and Paca2 cells): concentration dependent cytotoxicity
